Measured values published in patent US20050137807A1, “Method of visualization of the ADME properties of chemical substances” (priority 2003, published 2005).
Where two headings read alike, the source gives them in different places.

Experiments:
human serum albumin = human serum albumin (Homo sapiens, UniProt P02768); assay: binding constant to human serum albumin (TRANSIL technology)
Excerpt: The effective molecular weight (MW) is obtained simply from the respective empirical formula of the substance. The waters solubilities and the typical administered dosages of these commercially available products are furthermore known from the literature.
The ADME maps in FIGS. 5 to 10 show by way of example a selection of commercially available pharmaceutical substances. The substance names and the associated experimental measurement values for their physicochemical properties are summarised in Table 1.

[1] = membrane affinity as a measure of the lipophilicity (TRANSIL technology); assay type: physicochemical
[2] = log binding constant to human serum albumin, TRANSIL

Chain of human serum albumin (P02768 25-609): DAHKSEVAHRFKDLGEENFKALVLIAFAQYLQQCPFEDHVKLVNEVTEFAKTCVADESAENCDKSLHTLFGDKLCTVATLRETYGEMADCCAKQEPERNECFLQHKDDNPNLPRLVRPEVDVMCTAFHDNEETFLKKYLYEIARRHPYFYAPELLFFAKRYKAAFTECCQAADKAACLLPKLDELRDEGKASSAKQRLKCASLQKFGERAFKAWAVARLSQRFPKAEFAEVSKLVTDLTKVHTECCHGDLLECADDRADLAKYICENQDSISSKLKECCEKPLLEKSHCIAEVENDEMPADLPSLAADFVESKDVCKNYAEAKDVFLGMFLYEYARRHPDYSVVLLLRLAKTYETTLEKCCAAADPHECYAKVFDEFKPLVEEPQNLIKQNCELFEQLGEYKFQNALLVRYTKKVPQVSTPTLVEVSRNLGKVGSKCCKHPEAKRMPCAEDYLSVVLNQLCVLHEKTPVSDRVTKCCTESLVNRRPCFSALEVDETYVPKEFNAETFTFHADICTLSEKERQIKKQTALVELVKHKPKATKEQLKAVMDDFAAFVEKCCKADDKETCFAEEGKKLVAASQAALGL

Compound | LogHSA (human serum albumin; [2]) | LogMA [1] | LogHSA (human serum albumin; human) | LogHSA (human serum albumin)
CCOC(=O)C1=C(COCCN)NC(C)=C(C(=O)OC)C1c1ccccc1Cl (stereo not shown) [Amlodipine] | −5.000 |  |  | 
CC(=O)Nc1ccc(O)cc1 [Paracetamol] |  | 0.778 | −2.000 | 
Nc1nc(O)c2ncn(COC(CO)CO)c2n1 [Ganciclovir] |  | −0.301 |  | 
CO[C@@]1(NC(=O)CSCC#N)C(=O)N2C(C(=O)O)=C(CSc3nnnn3C)CS[C@@H]21 [Cefmetazole] |  | 1.079 |  | 
CCn1cc(C(=O)O)c(=O)c2cc(F)c(N3CCNCC3)cc21 [Norfloxacin] |  | 0.602 | −3.000 | 
CCN1CCN(C(=O)N[C@@H](C(=O)N[C@@H]2C(=O)N3C(C(=O)O)=C(CSc4nnnn4C)CS[C@H]23)c2ccc(O)cc2)C(=O)C1=O [Cefoperazone] |  | 1.362 |  | 
CO[C@@]1(NC(=O)Cc2cccs2)C(=O)N2C(C(=O)O)=C(COC(N)=O)CS[C@@H]21 [Cefoxitin] |  | 1.000 |  | 
NS(=O)(=O)c1cc(C(=O)O)c(NCc2ccco2)cc1Cl [Furosemide] |  | 1.342 |  | 
C[C@]12CCC(=O)C=C1CC[C@@H]1[C@@H]2[C@@H](O)C[C@@]2(C)[C@H]1CC[C@]2(O)C(=O)CO [Hydrocortisone] |  | 2.716 |  | 
Cc1ccccc1N1C(=O)c2cc(S(N)(=O)=O)c(Cl)cc2NC1C (stereo not shown) [Metolazone] |  | 1.531 | −4.201 | 
CCCCNc1cc(C(=O)O)cc(S(N)(=O)=O)c1Oc1ccccc1 [Bumetanide] |  | 2.279 | −5.076 | 
COc1ccc(Cl)cc1C(=O)NCCc1ccc(S(=O)(=O)NC(=O)NC2CCCCC2)cc1 [Glibenclamid] |  | 2.301 |  | −6.221
NC(=O)N1c2ccccc2C=Cc2ccccc21 [Carbamazepine] |  | 2.519 | −2.539 | 
CN(C)CCCN1c2ccccc2Sc2ccc(Cl)cc21 [Chlorpromazine] |  | 4.075 | −3.284 | 
CN(C)CCCN1c2ccccc2Sc2ccccc21 [Promazine] | −3.301 | 3.823 |  | 
C[C@H]1C[C@@H]2[C@H]([C@@H](O)C[C@@]3(C)[C@H]2CC[C@]3(O)C(=O)CO)[C@@]2(C)C=CC(=O)C=C12 [Methylprednisolone] |  |  | −3.000 | 
N=C(N)NC(=O)c1nc(Cl)c(N)nc1N [Amiloride] |  | 0.301 |  | 
CN1[C@@H]2C[C@@H](OC(=O)[C@H](CO)c3ccccc3)C[C@H]1[C@@H]1O[C@@H]12 [Scopolamine] |  | 1.462 |  | 
CC(C)n1c(/C=C/C(O)CC(O)CC(=O)O)c(-c2ccc(F)cc2)c2ccccc21 (stereo not shown) [Fluvastatin] |  |  | −5.678 | 
Cc1cn([C@H]2C[C@H](N=[N+]=[N-])[C@@H](CO)O2)c(=O)[nH]c1=O [Zidovudine] |  | 0.903 |  | 
Cc1nnc(SCC2=C(C(=O)O)N3C(=O)[C@@H](NC(=O)Cn4cnnn4)[C@H]3SC2)s1 [Cefazolin] | −3.456 | 0.903 |  | 
COC(=O)C1=C(C)NC(C)=C(C(=O)OCCN(C)Cc2ccccc2)C1c1cccc([N+](=O)[O-])c1 (stereo not shown) [Nicardipine] |  |  | −5.000 | 
O=C1CN=C(c2ccccc2)c2cc(Cl)ccc2N1 [Nordiazepam] |  | 3.086 |  | 
CCOC(=O)[C@H](CCc1ccccc1)N[C@@H](C)C(=O)N1CCC[C@H]1C(=O)O [Enalapril] |  | 1.000 | −2.959 | 
COc1cc([C@@H]2c3cc4c(cc3[C@@H](O[C@@H]3O[C@@H]5CO[C@@H](C)O[C@H]5[C@H](O)[C@H]3O)[C@H]3COC(=O)[C@H]23)OCO4)cc(OC)c1O [Etoposide] |  | 2.000 |  | 

Compound | LogHSA (human serum albumin; [2]) | LogMA [1] | LogHSA (human serum albumin; human) | LogHSA (human serum albumin)
O=C(O)c1ccccc1O [Salicylic acid] |  | 0.602 |  | 
Nc1nc2c(ncn2COCCO)c(=O)[nH]1 [Acyclovir] |  | −0.097 |  | 
CC(=O)Nc1ccc(OCC(O)CNC(C)C)cc1 (stereo not shown) [Practolol] |  | 1.301 |  | 
CN1CCN(C2=Nc3cc(Cl)ccc3Nc3ccccc32)CC1 [Clozapine] |  |  | −3.814 | 
CCOC(=O)C1=C(C)NC(C)=C(C(=O)OC)C1c1cccc(Cl)c1Cl (stereo not shown) [Felodipine] | −5.301 |  |  | 
CC(C(=O)O)c1cccc(C(=O)c2ccccc2)c1 (stereo not shown) [Ketoprofen] |  | 1.505 |  | 
CN/C(=N/CCSCc1nc[nH]c1C)NC#N [Cimetidine] |  | 1.176 | −1.876 | 
CC(=O)CC(c1ccccc1)c1c(O)c2ccccc2oc1=O (stereo not shown) [Warfarin] |  | 1.505 |  | 
CC(C)NCC(O)COc1ccc(CC(N)=O)cc1 (stereo not shown) [Atenolol] |  | 0.602 |  | 
Cc1cc(=O)n(-c2ccccc2)n1C [Antipyrine] |  | 1.146 |  | 
CC(CN1c2ccccc2Sc2ccccc21)N(C)C (stereo not shown) [Promethazine] |  | 3.992 | −3.028 | 
COc1ccc2c(c1)c(CC(=O)O)c(C)n2C(=O)c1ccc(Cl)cc1 [Indomethacin] |  | 2.255 |  | 
C[C@H]1O[C@@H](O[C@H]2[C@@H](O)C[C@H](O[C@H]3[C@@H](O)C[C@H](O[C@H]4CC[C@@]5(C)[C@H](CC[C@@H]6[C@@H]5C[C@@H](O)[C@]5(C)[C@@H](C7=CC(=O)OC7)CC[C@]65O)C4)O[C@@H]3C)O[C@@H]2C)C[C@H](O)[C@@H]1O [Digoxin] | −2.284 | 1.477 |  | 
CC(=O)[C@H]1CC[C@H]2[C@@H]3CCC4=CC(=O)CC[C@]4(C)[C@H]3CC[C@]12C [Progesteron] | −6.189 | 3.843 |  | 
CN1CCN(c2c(F)cc3c(=O)c(C(=O)O)cn(CCF)c3c2F)CC1 [Fleroxacin] |  | 1.301 | −2.523 | 
NC[C@H]1CC[C@H](C(=O)O)CC1 [Tranexamic acid] |  | −0.301 | −4.000 | 
CC(C)=CCN1CCC2(C)c3cc(O)ccc3CC1C2C (stereo not shown) [Pentazocin] | −2.510 | 2.633 |  | 
COCCc1ccc(OCC(O)CNC(C)C)cc1 (stereo not shown) [Metoprolol] |  | 1.591 | −2.000 | 
NCCCC[C@H](N[C@@H](CCc1ccccc1)C(=O)O)C(=O)N1CCC[C@H]1C(=O)O [Lisinopril] |  | 0.845 |  | 
O=C(O)Cc1ccccc1Nc1c(Cl)cccc1Cl [Diclofenac] |  | 2.940 |  | 
CCC1(c2ccccc2)C(=O)NC(=O)NC1=O [Phenobarbital] | −2.854 |  |  | 
CC1=C(C(=O)O)N2C(=O)[C@@H](NC(=O)[C@H](N)c3ccccc3)[C@H]2SC1 [Cephalexine] |  | 0.778 |  | 
CN1C(=O)CN=C(c2ccccc2)c2cc(Cl)ccc21 [Diazepam] |  | 3.170 |  | 
COc1ccc([C@@H]2Sc3ccccc3N(CCN(C)C)C(=O)[C@@H]2OC(C)=O)cc1 [Diltiazem] |  | 2.544 |  | 
CNC(=C[N+](=O)[O-])NCCSCc1ccc(CN(C)C)o1 [Ranitidine] |  |  | −2.155 | 

Compound | LogHSA (human serum albumin; [2]) | LogMA [1] | LogHSA (human serum albumin; human) | LogHSA (human serum albumin)
CC1(C)S[C@@H]2[C@H](NC(=O)COc3ccccc3)C(=O)N2[C@H]1C(=O)O [Phenoxymethyl penicillinic acid] |  | 1.146 |  | −3.102
CC(C)NCC(O)c1ccc(NS(C)(=O)=O)cc1 (stereo not shown) [Sotalol] |  | 1.301 | −1.678 | 
CC(C)NCC(O)COc1ccc(CCOCC2CC2)cc1 (stereo not shown) [Betaxolol] |  | 2.398 | −3.187 | 
OC(CCN1CCCCC1)(c1ccccc1)C1CCCCC1 (stereo not shown) [Trihexylphenidyl] | −3.006 | 2.415 |  | 
C=CCOc1ccccc1OCC(O)CNC(C)C (stereo not shown) [Oxprenolol] |  | 2.301 | −3.301 | 
CC(C)NCC(O)COc1cccc2[nH]ccc12 (stereo not shown) [Pindolol] |  | 2.398 | −2.699 | 
CCN(CC)CC(=O)Nc1c(C)cccc1C [Lidocaine] |  | 1.771 |  | 
Gentamicin |  | 0.000 |  | 
COc1cc2nc(N3CCN(C(=O)c4ccco4)CC3)nc(N)c2cc1OC [Prazosin] |  | 2.544 |  | 
O=C(O)c1cc(/N=N/c2ccc(S(=O)(=O)Nc3ccccn3)cc2)ccc1O [Sulfasalacine] |  | 2.748 |  | 
Cc1nnc(NS(=O)(=O)c2ccc(N)cc2)s1 [Sulfamethizole] |  | 1.000 | −4.000 | 
O=C(O)c1cn(C2CC2)c2cc(N3CCNCC3)c(F)cc2c1=O [Ciprofloxacin] |  | 0.954 |  | 
COCCOC(=O)C1=C(C)NC(C)=C(C(=O)OC(C)C)C1c1cccc([N+](=O)[O-])c1 (stereo not shown) [Nimodipine] |  |  | −5.000 | 
Cc1onc(-c2c(Cl)cccc2Cl)c1C(=O)N[C@@H]1C(=O)N2[C@@H]1SC(C)(C)[C@@H]2C(=O)O [Dicloxacillin] |  | 2.079 | −4.064 | 
CC(C)Cc1ccc(C(C)C(=O)O)cc1 (stereo not shown) [Ibuprofen] |  | 1.778 |  | 
CCCC(C)C1(CC)C(=O)NC(=O)NC1=O (stereo not shown) [Pentobarbital] | −2.523 | 2.176 |  | 
C[C@]12C=CC(=O)C=C1CC[C@@H]1[C@@H]2[C@@H](O)C[C@@]2(C)[C@H]1CC[C@]2(O)C(=O)CO [Prednisolone] |  | 2.568 |  | 
C[C@H](CS)C(=O)N1CCC[C@H]1C(=O)O [Captopril] |  | 0.477 | −3.222 | 
CC(=O)Oc1ccccc1C(=O)O [Acetylsalicylic acid] |  | 0.301 | −3.097 | 
CC1=C(C(=O)O)N2C(=O)[C@@H](NC(=O)[C@H](N)c3ccc(O)cc3)[C@H]2SC1 [Cefadroxil] |  | 1.079 |  | 
Clc1cccc(Cl)c1N=C1NCCN1 [Clonidine] |  | 1.602 | −2.463 | 
O=C(CCCN1CCC(O)(c2ccc(Cl)cc2)CC1)c1ccc(F)cc1 [Haloperidol] |  | 3.723 | −2.745 | 
CCN(CC)CCNC(=O)c1ccc(N)cc1 [Procainamide] |  | 1.176 |  | 
C[C@H](N[C@@H](CCc1ccccc1)C(=O)O)C(=O)N1CCC[C@H]1C(=O)O [Enalaprilate] |  | 0.176 |  | 
CC1(C)S[C@@H]2[C@H](NC(=O)[C@H](N)c3ccccc3)C(=O)N2[C@H]1C(=O)O [Ampicillin] |  | 1.114 |  | 
